According to patent publication US20110045083A1, “USE LARCH WOOD FOR TREATING INFLAMMATION” (priority 2007, published 2011):
Several values for one entry are separate records, joined by “and”; a condition that tells them apart may be missing. Identical values can stand only once. Like-named read-outs stand apart in the source and are kept apart here. Values belong to the compound of their own block, whether it stands above or below them.

Legend:
IL-6 and TNF-α = test: Sow feeding trial, Postpartum Dysgalactia Syndrome, inflammation markers; type: in vivo; conditions: sows, relative to untreated animals at allocation day
Description: Principle: Evaluation of the antiinflammatory activity of Larch sawdust in order to reduce the prevalence of Postpartum Dysgalactia Syndrome in sows under field conditions. IL-6 and TNF-α were analyzed as markers of inflammatory stress.
Materials and Methods: Sows with no clinical signs of disease were used from a farm of approximately 900 sows under production. Trial animals were sows of the same genotype (Dalland hybrids), chosen in terms of achieving homogenity regarding parity, bodyweight, previous production parameters (litter size, litter average bodyweight etc.) and previous health status. The farm was selected due to previous history of Post Partum Dysgalactia Syndrome occurrence. The sows were randomly allocated to a control group (n=5), a positive control group (n=5) and a larch sawdust (n=5) group. The whole trial period was 35 days beginning at 7 days prior to farrow until the day of weaning.
1% by weight of larch sawdust was added as an anti-inflammatory ingredient to sow feed (dry period and lactation feed). […] The raw materials were well accepted at an inclusion level of 1% by weight in the diet as it was shown by previous trials performed.
Thus, during the whole trial period the animals were fed as follows:
1. Control group (99% Basic diet and 1% Corn starch) 2. Larch group (99% Basic diet and 1% Larch) 3. Positive control group (99% Basic diet and 1% Corn starch)
Moreover, the animals of the positive control group were injected a single 2 ml dosage of an antiinflammatory drug (meloxicam) at the day of parturition, while the animals of all the other groups were injected with a single 2 ml dose of normal saline at the same day.
Blood samples were collected from all trial animals at allocation day (7 days before farrowing day) and at 24 and 72 hours post farrowing from all sows for inflammation markers evaluation (serum TNF-α, plasma IL-6). Additionally the milk production index for all sows was calculated, while production and health parameters of sows and their litters were recorded.
The cytokines results were expressed as n-fold increase of cytokine expression in relation to untreated animals at allocation day.

[1] = test system: 5-LOX mediated LT biosynthesis; test: LT biosynthesis inhibition assay in activated neutrophile granulocytes, LTB4 EIA; type: cell-based, human
Description: 1.) LT biosynthesis inhibition assay
The assay was performed as described in [Michael Adams, Olaf Kunert, Ernst Haslinger, Rudolf Bauer: Inhibition of Leukotriene Biosynthesis by Quinolone Alkaloids from the Fruits of Evodia Rutaecarpa; Planta med. 2004 (70): 904-908] with some modifications.
Principle: Activated neutrophile granulocytes with 5-LOX activity are incubated with a defined concentration of test sample and arachidonic acid. After stopping the enzymatic reaction by addition of formic acid and centrifugation to remove cellular fragments, the produced LTB4 is quantified in the supernatant by means of an LTB4 EIA kit.
Isolation of human neutrophile granulocytes: 30 ml of venous human blood from healthy voluntary donors are collected with a Vacutainer™ (BD, Plymouth, UK) system containing a 0.219 M pre-analytical citric acid solution. The blood is immediately transferred to a falcon tube containing 20 ml of sedimentation solution (1% NaCl, 6% dextran T-500) and left to separate for 60 min at 4° C. While most of the dense erythrocytes sink into the dextran layer, the lighter blood fractions remain in the upper layer which is then removed and centrifuged at 1600 rpm (4° C., 10 min) to concentrate the leukocytes. The plasma supernatant is discarded, the pellet is resuspended in 10 ml of a wash buffer (10% CaCl2.2H2O p.a.; 0.1% anhydrous d-glucose; 0.2% MgCl2.6H2O; 0.04% KCl; 1.75% TRIS p.a.; with the pH adjusted to 7.6 with 1N HCl). After centrifugation at 1400 rpm (4° C., 10 min) and removal of the supernatant the resulting pellet is resuspended in 10 ml of a hypotonic lysis buffer (0.17% NH4Cl; 0.2% TRIS; pH 7.2) and gently shaken for 5 min at room temperature to destroy remaining erythrocytes. The suspension is submitted to another centrifugation at 1400 rpm (4° C., 5 min). The pellet is resuspended in 10 ml of wash buffer and then centrifuged at 1400 rpm (4° C., 15 min). The resulting pellet which now mainly contains neutrophile granulocytes is resuspended in 2 ml of TRIS buffer (1.75% TRIS p.a., 0.9% NaCl, pH 7.4), tested for vitality, quantified and then diluted to a cell concentration of 4500 cells/ml with TRIS buffer.
Cell vitality test: 50 μl of cell suspension and 10 μl of trypan blue solution (0.4%) (Sigma Chemical Co. Steinheim, Germany) are mixed on a glass object carrier and examined with a light microscope at 1000 fold magnification. Dead cells appear larger and darker due to absorption of trypan blue. The vitality of the cells must be >95%.
Determination of cell concentration: 10 μl of granulocyte cell suspension are dyed using 990 μl aqueous TURKS solution (Merck) and quantified in a “Neubauer” chamber (Assistent, Germany).
Sample preparation: samples are dissolved in an appropriate amount of ethanol p.a. to be added to the test mixture resulting in screening concentrations of 50 μM for pure compounds and 20 μg/ml for crude. The commercially available 5-LOX inhibitor zileuton (Sequoia Research Products Ltd., UK) is used as a positive control at a concentration of 10 μM representing its IC50 in this test system.
Incubation procedure: The incubation mixture in a 96-well flat bottom microtitre plate (Bibby Sterilin, Staffordshire, UK) consists of 265 μl leukocyte suspension, with 75.5 μM CaCl2, 0.152 μM […] (ETYA) as an inhibitor of the 12-LOX pathway, 0.642 μM Ca ionophore A23187 and 4.43 μM arachidonic acid, the substrate of the 5-LOX pathway, along with 5 μl of each test solution or 5 μl of EtOH p.a. in control wells. After incubation for 10 min at 37° C. in darkness, the reaction is stopped by addition of 20 μl of 10% formic acid. The microtitre plate is centrifuged for 15 min at 1400 rpm to separate free LTB4 from cellular particles before the supernatant is diluted 40 fold in EIA buffer and applied to a competitive LTB4 EIA kit (Assay Designs Inc.).
LTB4 EIA: The plate is incubated for 2 hours at room temperature on an orbital shaker. […]

5-lipoxygenase (5-LOX) = conditions: read-out: 5-LOX inhibitory activity IC50, cited from earlier work

Compound: Cc1cnc(NC(=O)C2=C(O)c3ccccc3S(=O)(=O)N2C)s1 [Positive controls, meloxicam]
Relative expression of IL6 (IL-6 and TNF-α; 24 hours PP): 1.86 ± 0.92 n fold
Relative expression of TNFα (IL-6 and TNF-α; 24 hours PP): 0.87 ± 0.29 n fold
Relative expression of IL6 (IL-6 and TNF-α; 72 hours PP): 1.08 ± 0.78 n fold
Relative expression of TNFα (IL-6 and TNF-α; 72 hours PP): 0.98 ± 0.77 n fold

IC50 [1]: 5 µM
IC50 ([1]; Homo sapiens): 10 µM and 1.2 µg/mL
Compound: CC(c1cc2ccccc2s1)N(O)C(N)=O (centres unmarked) [Zileuton, reference compound]

Compound: CC(C)C1=CC2=CC[C@@H]3[C@](C)(CCC[C@@]3(C)C(=O)O)[C@H]2CC1 [abietic acid]
IC50 (5-lipoxygenase (5-LOX); Ulusu et al. 2002, isolated from cones of Abies nordmanniana ssp. equitraojani): 29.5 ± 1.29 µM
IC50 (5-lipoxygenase (5-LOX); known from the art): ~30 µM
